Consider 24 compounds from patent US10280159B2 (AbbVie Deutschland GmbH & Co. KG, priority 2015, dated 2019).

Common to all, as to assay type: cell-based
Assay [1] has as its target T1, human S1PR5 (Homo sapiens, UniProt Q9H228).
T1 construct: host or cells: CHO-K1
Briefly: Intracellular Ca2+ release (FLIPR) agonist potency, S1P5. To be noted: recombinant CHO-K1 cells expressing human S1PR5, aequorin, Gq/i5; Calcium 5 FLIPR; read-out: S1P5 EC50 range. In a few lines: (§1)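 CHO-K1 cells recombinantly expressing the human S1P receptor plus aequorin and Gq/i5 were grown in F-12 Ham with 10% FBS. Agonist-induced intracellular Ca2+ release was read on a FLIPR Tetra. EC50 came from nonlinear fits of raw fluorescence normalized to the phospho-fingolimod reference curve.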

In assay [2] the target is T2, human S1PR1 (Homo sapiens, UniProt P21453).
T2 construct: host or cells: CHO-K1
T2 sequence (P21453 whole entry): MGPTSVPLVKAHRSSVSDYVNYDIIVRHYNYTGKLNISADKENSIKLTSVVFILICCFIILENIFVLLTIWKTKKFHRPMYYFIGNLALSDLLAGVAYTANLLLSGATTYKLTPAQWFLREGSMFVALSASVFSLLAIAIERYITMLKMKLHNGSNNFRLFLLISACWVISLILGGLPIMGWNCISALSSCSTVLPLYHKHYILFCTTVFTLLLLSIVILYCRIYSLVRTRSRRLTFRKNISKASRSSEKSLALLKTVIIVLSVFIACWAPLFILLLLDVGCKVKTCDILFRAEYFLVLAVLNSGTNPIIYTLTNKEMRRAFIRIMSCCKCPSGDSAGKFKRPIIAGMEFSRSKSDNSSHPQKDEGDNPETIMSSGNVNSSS
Put plainly: Intracellular Ca2+ release (FLIPR) agonist potency, S1P1. Particulars: recombinant CHO-K1 cells expressing human S1PR1, aequorin, Gq/i5; Calcium 5 FLIPR; read-out: S1P1 EC50. In short, it runs like this: as §1

The target of assay [3] is T3, human S1PR3 (Homo sapiens, UniProt Q99500).
T3 construct: host or cells: CHO-K1
T3 sequence (Q99500 whole entry): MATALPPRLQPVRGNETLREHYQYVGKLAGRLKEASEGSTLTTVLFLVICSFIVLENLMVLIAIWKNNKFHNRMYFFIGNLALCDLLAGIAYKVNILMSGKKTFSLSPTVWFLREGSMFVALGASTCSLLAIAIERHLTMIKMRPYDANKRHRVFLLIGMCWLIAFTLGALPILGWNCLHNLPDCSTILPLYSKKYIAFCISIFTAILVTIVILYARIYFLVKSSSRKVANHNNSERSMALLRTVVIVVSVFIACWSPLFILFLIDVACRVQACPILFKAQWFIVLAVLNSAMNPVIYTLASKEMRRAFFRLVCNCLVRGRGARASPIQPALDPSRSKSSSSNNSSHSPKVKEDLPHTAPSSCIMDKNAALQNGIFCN
Put plainly: Intracellular Ca2+ release (FLIPR) agonist potency, S1P3. Particulars: recombinant CHO-K1 cells expressing human S1PR3, aequorin, Gq/i5; Calcium 5 FLIPR; read-out: S1P3 EC50. In short, it runs like this: as §1

Assay [4] deals with T4, human S1PR4 (Homo sapiens, UniProt O95977).
T4 construct: host or cells: CHO-K1
T4 sequence (O95977 1-384): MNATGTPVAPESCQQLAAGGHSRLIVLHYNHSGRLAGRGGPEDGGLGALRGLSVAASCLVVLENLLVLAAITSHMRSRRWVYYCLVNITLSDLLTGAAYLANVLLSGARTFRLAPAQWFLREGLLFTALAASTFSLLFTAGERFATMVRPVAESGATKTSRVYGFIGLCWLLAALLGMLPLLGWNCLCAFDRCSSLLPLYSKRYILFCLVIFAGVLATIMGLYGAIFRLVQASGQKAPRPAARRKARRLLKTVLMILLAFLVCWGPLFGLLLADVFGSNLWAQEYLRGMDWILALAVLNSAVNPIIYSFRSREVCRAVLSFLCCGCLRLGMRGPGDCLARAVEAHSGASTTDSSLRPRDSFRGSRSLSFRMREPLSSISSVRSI
Briefly: Intracellular Ca2+ release (FLIPR) agonist potency, S1P4. Particulars: recombinant CHO-K1 cells expressing human S1PR4, aequorin, Gq/i5; Calcium 5 FLIPR; read-out: S1P4 EC50. In a few lines: as §1

Where a name gives a salt, the structure may show the parent alone. Some results are limits rather than exact numbers.

T1 sequence (Q9H228 whole entry): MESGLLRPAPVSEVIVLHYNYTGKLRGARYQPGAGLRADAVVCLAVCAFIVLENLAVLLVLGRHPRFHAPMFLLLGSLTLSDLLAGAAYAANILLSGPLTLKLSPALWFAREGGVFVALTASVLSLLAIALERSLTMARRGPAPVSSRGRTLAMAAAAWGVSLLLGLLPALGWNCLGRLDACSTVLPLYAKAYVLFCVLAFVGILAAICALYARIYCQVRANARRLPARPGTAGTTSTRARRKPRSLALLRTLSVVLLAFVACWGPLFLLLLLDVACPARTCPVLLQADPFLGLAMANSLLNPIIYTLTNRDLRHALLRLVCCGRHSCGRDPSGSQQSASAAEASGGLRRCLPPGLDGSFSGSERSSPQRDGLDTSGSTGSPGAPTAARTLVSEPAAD

The term EC50 denotes the concentration that produces a half-maximal response. Consider `O=C(O)C1CN(C2COc3cc(OCc4c(F)cccc4C(F)(F)F)ccc3C2)C1` (stereo not drawn) [Compound 66, 1-(7-((2-fluoro-6-(trifluoromethyl)benzyl)oxy)chroman-3-yl)azetidine-3-carboxylic acid], for which the EC50 in assay [1] was 10 to 100 nM; in assay [2], over 1000 nM; in assay [3] it was over 1000 nM; in assay [4], under 1000 nM.
As for `O=C(O)C1CN(C2COc3cc(OCc4c(F)cccc4C4CC4)ccc3C2)C1` (stereo not drawn) [Compound 67, 1-(7-((2-cyclopropyl-6-fluorobenzyl)oxy)chroman-3-yl)azetidine-3-carboxylic acid], the concentration giving a half-maximal response (EC50) was under 10 nM in assay [1], over 1000 nM in assay [2], over 1000 nM in assay [3] and under 1000 nM in assay [4].
For `O=C(O)C1CN(C2COc3cc(OCc4ccc(Cl)cc4Cl)ccc3C2)C1` (stereo not drawn) [Compound 68, 1-(7-((2,4-dichlorobenzyl)oxy)chroman-3-yl)azetidine-3-carboxylic acid], the EC50 is 100 to 1000 nM in assay [1], over 1000 nM in assay [2], over 1000 nM in assay [3] and over 1000 nM in assay [4].
With `O=C(O)C1CN(C2COc3cc(OCCc4c(Cl)cccc4Cl)ccc3C2)C1` (stereo not drawn) [Compound 69, 1-(7-(2,6-dichlorophenethoxy)chroman-3-yl)azetidine-3-carboxylic acid], the EC50 in assay [1] is 10 to 100 nM; in assay [2] it was over 1000 nM; in assay [3] it was over 1000 nM; in assay [4] it was over 1000 nM.
Turning to `O=C(O)C1CCN(CC2OCCc3cc(OCc4c(Cl)cccc4Cl)ccc32)CC1` (stereo not drawn) [Compound 70, 1-((6-((2,6-dichlorobenzyl)oxy)isochroman-1-yl)methyl)piperidine-4-carboxylic acid], the EC50 is 10 to 100 nM in assay [1], over 1000 nM in assay [2], over 1000 nM in assay [3] and under 1000 nM in assay [4].
As for `CCc1cccc(Cl)c1COc1ccc2c(c1)CCC(NCC(=O)O)C2` (stereo not drawn) [Compound 73, 2-((6-((2-chloro-6-ethylbenzyl)oxy)-1,2,3,4-tetrahydronaphthalen-2-yl)amino)acetic acid], the EC50 in assay [1] is under 10 nM; in assay [2] it was under 1000 nM; in assay [3] it was over 1000 nM; in assay [4] it was under 1000 nM.
Consider `O=C(O)C1CCN(C2CCc3cc(OCc4c(Cl)cccc4Cl)ccc3C2)C1` (stereo not drawn) [Compound 74, 1-(6-((2,6-dichlorobenzyl)oxy)-1,2,3,4-tetrahydronaphthalen-2-yl)pyrrolidine-3-carboxylic acid], for which the EC50 in assay [1] is under 10 nM; in assay [2] it was over 1000 nM; in assay [3], over 1000 nM; in assay [4], under 1000 nM.
In the case of `O=C(O)CNC1CCc2cc(OCc3c(Cl)cccc3Cl)ccc2C1` (stereo not drawn) [Compound 75, 2-((6-((2,6-dichlorobenzyl)oxy)-1,2,3,4-tetrahydronaphthalen-2-yl)amino)acetic acid], the concentration giving a half-maximal response (EC50) in assay [1] was under 10 nM; in assay [2], over 1000 nM; in assay [3] it was over 1000 nM; in assay [4], under 1000 nM.
`O=C(O)[C@H]1C[C@@H](NC2CCc3cc(OCc4c(Cl)cccc4Cl)ccc3C2)C1` (stereo partly drawn) [Compound 77, (1 s,3s)-3-((6-((2,6-dichlorobenzyl)oxy)-1,2,3,4-tetrahydronaphthalen-2-yl)amino)cyclobutanecarboxylic acid]: the EC50 in assay [1] is under 10 nM; in assay [2] it was under 1000 nM; in assay [3] it was over 1000 nM; in assay [4] it was under 1000 nM.
Take `O=C(O)CC1CN(C2CCc3cc(OCc4c(Cl)cccc4Cl)ccc3C2)C1` (stereo not drawn) [Compound 78, 2-(1-(6-((2,6-dichlorobenzyl)oxy)-1,2,3,4-tetrahydronaphthalen-2-yl)azetidin-3-yl)acetic acid]: the EC50 in assay [1] is under 10 nM; in assay [2], over 1000 nM; in assay [3], over 1000 nM; in assay [4] it was under 1000 nM.
For `O=C(O)[C@H]1C[C@H](NC2CCc3cc(OCc4c(Cl)cccc4Cl)ccc3C2)C1` (stereo partly drawn) [Compound 79, (1r,3r)-3-((6-((2,6-dichlorobenzyl)oxy)-1,2,3,4-tetrahydronaphthalen-2-yl)amino)cyclobutanecarboxylic acid], the EC50 is under 10 nM in assay [1], under 1000 nM in assay [2], over 1000 nM in assay [3] and under 1000 nM in assay [4].
Turning to `O=C(O)CC1CCN(C2CCc3cc(OCc4c(Cl)cccc4Cl)ccc3C2)C1` (stereo not drawn) [Compound 80, 2-(1-(6-((2,6-dichlorobenzyl)oxy)-1,2,3,4-tetrahydronaphthalen-2-yl)pyrrolidin-3-yl)acetic acid], the EC50 in assay [1] is 10 to 100 nM; in assay [2], over 1000 nM; in assay [3], over 1000 nM; in assay [4], under 1000 nM.
As to `O=C(O)C1CN(C2COc3cc(CCc4cc(F)cc(F)c4)ccc3C2)C1` (stereo not drawn) [Compound 81, 1-(7-(3,5-difluorophenethyl)chroman-3-yl)azetidine-3-carboxylic acid], the EC50 is 1000 to 10000 nM in assay [1], over 1000 nM in assay [2], over 1000 nM in assay [3] and over 1000 nM in assay [4].
For `CCc1cccc(Cl)c1COc1ccc2c(c1)CCC1C2OCCN1CCC(=O)O` (stereo not drawn) [Compound 82, 3-(8-((2-chloro-6-ethylbenzyl)oxy)-5,6-dihydro-2H-naphtho[1,2-b][1,4]oxazin-4(3H,4aH,10bH)-yl)propanoic acid hydrochloride], the EC50 was under 10 nM in assay [1], under 1000 nM in assay [2], over 1000 nM in assay [3] and under 1000 nM in assay [4].
`O=C(O)COC1CCc2cc(OCc3c(F)ccc(Cl)c3F)ccc2C1` (stereo not drawn) [Compound 152, 2-[6-[(3-chloro-2,6-difluoro-phenyl)methoxy]tetralin-2-yl]oxyacetic acid]: the EC50 in assay [1] was under 10 nM; in assay [2], over 1000 nM; in assay [3], over 1000 nM; in assay [4] it was over 1000 nM.
On to `O=C(O)COC1CCc2cc(OCc3cc(OC(F)(F)F)ccc3F)ccc2C1` (stereo not drawn) [Compound 161, 2-[6-[[2-fluoro-5-(trifluoromethoxy)phenyl]methoxy]tetralin-2-yl]oxyacetic acid], for which the EC50 in assay [1] is 10 to 100 nM; in assay [2], over 1000 nM; in assay [3] it was over 1000 nM; in assay [4], over 1000 nM.
Take `O=C(O)COC1CCc2cc(OCc3c(Cl)cccc3C(F)(F)F)ccc2C1` (stereo not drawn) [Compound 167, 2-[6-[[2-chloro-6-(trifluoromethyl)phenyl]methoxy]tetralin-2-yl]oxyacetic acid]: the EC50 in assay [1] is under 10 nM; in assay [2] it was over 1000 nM; in assay [3] it was over 1000 nM; in assay [4], over 1000 nM.
As to `O=C(O)COC1CCc2cc(OCc3cc(F)ccc3C(F)(F)F)ccc2C1` (stereo not drawn) [Compound 168, 2-[6-[[5-fluoro-2-(trifluoromethyl)phenyl]methoxy]tetralin-2-yl]oxyacetic acid], the EC50 is under 10 nM in assay [1], over 1000 nM in assay [2], over 1000 nM in assay [3] and under 1000 nM in assay [4].
As to `Cc1cccc(C)c1COc1ccc2c(c1)CCC(OCC(=O)O)C2` (stereo not drawn) [Compound 175, 2-[6-[(2,6-dimethylphenyl)methoxy]tetralin-2-yl]oxyacetic acid], the EC50 is 10 to 100 nM in assay [1], over 1000 nM in assay [2], over 1000 nM in assay [3] and over 1000 nM in assay [4].
Turning to `O=C(O)COC1CCc2cc(OCc3c(Cl)cccc3Cl)ccc2C1` (stereo not drawn) [Compound 210, 2-[6-[(2,6-dichlorophenyl)methoxy]tetralin-2-yl]oxyacetic acid], the EC50 is 100 to 1000 nM in assay [1], over 1000 nM in assay [2], over 1000 nM in assay [3] and over 1000 nM in assay [4].
Consider `CC(C)(C)c1ccc(COc2ccc3c(c2)CCC(OCC(=O)O)C3)cc1` (stereo not drawn) [Compound 211, 2-[6-[(4-tert-butylphenyl)methoxy]tetralin-2-yl]oxyacetic acid], for which the EC50 in assay [1] was 10 to 100 nM; in assay [2], over 1000 nM; in assay [3], over 1000 nM; in assay [4] it was over 1000 nM.
As to `O=C(O)COC1CCc2cc(OCc3cccc(C(F)(F)F)c3)ccc2C1` (stereo not drawn) [Compound 213, 2-[6-[[3-(trifluoromethyl)phenyl]methoxy]tetralin-2-yl]oxyacetic acid], the EC50 in assay [1] is 10 to 100 nM; in assay [2], over 1000 nM; in assay [3], over 1000 nM; in assay [4] it was under 1000 nM.
As for `CCc1cccc(Cl)c1COc1ccc2c(c1)CCC(NCC(=O)N(C)OC)C2` (stereo not drawn) [Compound 216, 2-[[6-[(2-chloro-6-ethyl-phenyl)methoxy]tetralin-2-yl]amino]-N-methoxy-N-methyl-acetamide], the concentration for a half-maximal effect (EC50) was under 10 nM in assay [1], over 1000 nM in assay [2], over 1000 nM in assay [3] and over 1000 nM in assay [4].
As for `CCc1cccc(Cl)c1COc1ccc2c(c1)CCC(NCC(=O)NOC)C2` (stereo not drawn) [Compound 218, 2-[[6-[(2-chloro-6-ethyl-phenyl)methoxy]tetralin-2-yl]amino]-N-methoxy-acetamide], the 50% effective concentration (EC50) is 100 to 1000 nM in assay [1], over 1000 nM in assay [2], over 1000 nM in assay [3] and over 1000 nM in assay [4].
